Experimental data from article PMC3853768 (Molecular Pain, 2013).
Entries after “also recorded” stand apart in the source; their conditions may differ.

Key:
R-type channels (Cav2.3) = type: cell-based, mouse
residual ICa = type: cell-based, mouse

| Compound | effect on ICa of R-type blocker (R-type channels (Cav2.3)) | block of residual ICa (residual ICa) |
| --- | --- | --- |
| SNX-482: blocker of R-type channels (Cav2.3), from Peptide Institute (GVDKAGCRYMFGGCSVNDDCCPRLGCHSLFSYCAWDLTFSD; UniProt P56854 1-41, looked up) | lack of effect; also recorded: without effect |  |
| [Cl][Cd][Cl] [CdCl2] |  | residual ICa was blocked |
